# Assay results published in ChEMBL document CHEMBL5696441 (Nat Chem Biol, 2011).
# What was measured:
# [1] = target: Tyrosine-protein kinase Yes (Homo sapiens) (UniProt P07947); assay: Inhibition of YES (unknown origin) assessed as remaining activity at 1 uM by Kinome scan method relative to control
# [2] = target: Bone morphogenetic protein receptor type-1A (Homo sapiens) (UniProt P36894); assay: Inhibition of human BMPR1A assessed as residual activity at 1 uM using casein as substrate in presence of 33P-ATP by ProQinase assay relative to control
# [3] = target: SRSF protein kinase 2 (Homo sapiens) (UniProt P78362); assay: Inhibition of human SRPK2 assessed as residual activity at 1 uM using MBP as substrate in presence of 33P-ATP by ProQinase assay relative to control
# [4] = target: TGF-beta receptor type-2 (Homo sapiens) (UniProt P37173); assay: Inhibition of human TGFBR2 assessed as residual activity at 1 uM using RB-S6P as substrate in presence of 33P-ATP by ProQinase assay relative to control
# [5] = target: Ribosomal protein S6 kinase alpha-1 (Homo sapiens) (UniProt Q15418); assay: Inhibition of C-terminal kinase domain RPS6KA1 (unknown origin) assessed as remaining activity at 1 uM by Kinome scan method relative to control
# [6] = Anti-inflammatory activity against human derived high respond PBMC cells assessed as inhibition in stimulated IL-1beta cytokine release incubated for 2 hrs in the presence of LPS/SEB/aCD28 by Luminex based sandwich immunoassay; type: functional, cell-based
# [7] = target: Casein kinase I isoform gamma-2 (Homo sapiens) (UniProt P78368); assay: Inhibition of CSNK1G2 (unknown origin) assessed as remaining activity at 1 uM by Kinome scan method relative to control
# [8] = target: Cyclin-dependent kinase-like 3 (Homo sapiens) (UniProt Q8IVW4); assay: Inhibition of CDKL3 (unknown origin) assessed as remaining activity at 1 uM by Kinome scan method relative to control
# [9] = target: Serine/threonine-protein kinase 4 (Homo sapiens) (UniProt Q13043); assay: Inhibition of human MST1 assessed as residual activity at 1 uM using RB-CTF as substrate in presence of 33P-ATP by ProQinase assay relative to control
# [10] = target: Mitogen-activated protein kinase 8 (Homo sapiens) (UniProt P45983); assay: Inhibition of human JNK1 assessed as residual activity at 1 uM using ATF2 as substrate in presence of 33P-ATP by ProQinase assay relative to control
# [11] = target: Serine/threonine-protein kinase PLK3 (Homo sapiens) (UniProt Q9H4B4); assay: Inhibition of human PLK3 assessed as residual activity at 1 uM using casein as substrate in presence of 33P-ATP by ProQinase assay relative to control
# [12] = test system: Phosphatidylinositol 4,5-bisphosphate 3-kinase catalytic subunit alpha isoform (Homo sapiens), P42336 [H1047Y]; assay: Inhibition of PIK3CA H1047Y mutant (unknown origin) assessed as remaining activity at 1 uM by Kinome scan method relative to control
# [13] = target: Ephrin type-B receptor 2 (Homo sapiens) (UniProt P29323); assay: Inhibition of EPHB2 (unknown origin) assessed as remaining activity at 1 uM by Kinome scan method relative to control
# [14] = Anti-inflammatory activity against human derived medium respond PBMC cells assessed as inhibition in stimulated IL-5 cytokine release incubated for 2 hrs in the presence of LPS/SEB/aCD28 by Luminex based sandwich immunoassay; type: functional, cell-based
# [15] = test system: Platelet-derived growth factor receptor alpha (Homo sapiens), P16234 [V561D]; assay: Inhibition of human PDGFRalpha V561D mutant assessed as residual activity at 1 uM using PolyEY as substrate in presence of 33P-ATP by ProQinase assay relative to control
# [16] = test system: Hepatocyte growth factor receptor (Homo sapiens), P08581 [F1200I]; assay: Inhibition of human MET F1200I mutant assessed as residual activity at 1 uM using poly(Ala,Glu,Lys,Tyr)6:2:5:1 as substrate in presence of 33P-ATP by ProQinase assay relative to control
# [17] = target: Serine/threonine-protein kinase VRK1 (Homo sapiens) (UniProt Q99986); assay: Inhibition of human VRK1 assessed as residual activity at 1 uM using RBER-CHKtide as substrate in presence of 33P-ATP by ProQinase assay relative to control
# [18] = target: Mitogen-activated protein kinase 1 (Homo sapiens) (UniProt P28482); assay: Inhibition of ERK2 (unknown origin) assessed as remaining activity at 1 uM by Kinome scan method relative to control
# [19] = test system: Hepatocyte growth factor receptor (Homo sapiens), P08581 [Y1230A]; assay: Inhibition of human MET Y1230A mutant assessed as residual activity at 1 uM using poly(Ala,Glu,Lys,Tyr)6:2:5:1 as substrate in presence of 33P-ATP by ProQinase assay relative to control
# [20] = test system: Epidermal growth factor receptor (Homo sapiens), P00533 [UNDEFINED MUTATION]; assay: Inhibition of EGFR S752-I759del mutant (unknown origin) assessed as remaining activity at 1 uM by Kinome scan method relative to control
# [21] = target: Tyrosine-protein kinase Mer (Homo sapiens) (UniProt Q12866); assay: Inhibition of human MERTK assessed as residual activity at 1 uM using polyEY as substrate in presence of 33P-ATP by ProQinase assay relative to control
# [22] = target: Cyclin-dependent kinase 5/CDK5 activator 1 (Homo sapiens) (UniProt Q00535+Q15078); assay: Inhibition of human CDK5/p25NCK assessed as residual activity at 1 uM using RBER-CHKtide as substrate in presence of 33P-ATP by ProQinase assay relative to control; type: protein-complex assay
# [23] = target: Casein kinase I isoform alpha (Homo sapiens) (UniProt P48729); assay: Inhibition of human CK1alpha1 assessed as residual activity at 1 uM using casein as substrate in presence of 33P-ATP by ProQinase assay relative to control
# CYP2C19 = CYP2C19 (Homo sapiens, UniProt P33261); assay: Inhibition of CYP2C19 (unknown origin) at 10 uM relative to control; type: ADME
# [24] = target: Glycogen synthase kinase-3 beta (Homo sapiens) (UniProt P49841); assay: Inhibition of GSK3beta (unknown origin) assessed as remaining activity at 1 uM by Kinome scan method relative to control
# [25] = target: NUAK family SNF1-like kinase 1 (Homo sapiens) (UniProt O60285); assay: Inhibition of ARK5 (unknown origin) assessed as remaining activity at 1 uM by Kinome scan method relative to control
# [26] = target: Phosphorylase b kinase gamma catalytic chain, skeletal muscle/heart isoform (Homo sapiens) (UniProt Q16816); assay: Inhibition of human PHKG1 assessed as residual activity at 1 uM using 3xChocktide-PKC as substrate in presence of 33P-ATP by ProQinase assay relative to control
# [27] = target: Vascular endothelial growth factor receptor 1 (Homo sapiens) (UniProt P17948); assay: Inhibition of human VEGFR1 assessed as residual activity at 1 uM using polyEY as substrate in presence of 33P-ATP by ProQinase assay relative to control
# Sequence of Platelet-derived growth factor receptor alpha (Homo sapiens), P16234 [V561D] (P16234 whole entry V561D): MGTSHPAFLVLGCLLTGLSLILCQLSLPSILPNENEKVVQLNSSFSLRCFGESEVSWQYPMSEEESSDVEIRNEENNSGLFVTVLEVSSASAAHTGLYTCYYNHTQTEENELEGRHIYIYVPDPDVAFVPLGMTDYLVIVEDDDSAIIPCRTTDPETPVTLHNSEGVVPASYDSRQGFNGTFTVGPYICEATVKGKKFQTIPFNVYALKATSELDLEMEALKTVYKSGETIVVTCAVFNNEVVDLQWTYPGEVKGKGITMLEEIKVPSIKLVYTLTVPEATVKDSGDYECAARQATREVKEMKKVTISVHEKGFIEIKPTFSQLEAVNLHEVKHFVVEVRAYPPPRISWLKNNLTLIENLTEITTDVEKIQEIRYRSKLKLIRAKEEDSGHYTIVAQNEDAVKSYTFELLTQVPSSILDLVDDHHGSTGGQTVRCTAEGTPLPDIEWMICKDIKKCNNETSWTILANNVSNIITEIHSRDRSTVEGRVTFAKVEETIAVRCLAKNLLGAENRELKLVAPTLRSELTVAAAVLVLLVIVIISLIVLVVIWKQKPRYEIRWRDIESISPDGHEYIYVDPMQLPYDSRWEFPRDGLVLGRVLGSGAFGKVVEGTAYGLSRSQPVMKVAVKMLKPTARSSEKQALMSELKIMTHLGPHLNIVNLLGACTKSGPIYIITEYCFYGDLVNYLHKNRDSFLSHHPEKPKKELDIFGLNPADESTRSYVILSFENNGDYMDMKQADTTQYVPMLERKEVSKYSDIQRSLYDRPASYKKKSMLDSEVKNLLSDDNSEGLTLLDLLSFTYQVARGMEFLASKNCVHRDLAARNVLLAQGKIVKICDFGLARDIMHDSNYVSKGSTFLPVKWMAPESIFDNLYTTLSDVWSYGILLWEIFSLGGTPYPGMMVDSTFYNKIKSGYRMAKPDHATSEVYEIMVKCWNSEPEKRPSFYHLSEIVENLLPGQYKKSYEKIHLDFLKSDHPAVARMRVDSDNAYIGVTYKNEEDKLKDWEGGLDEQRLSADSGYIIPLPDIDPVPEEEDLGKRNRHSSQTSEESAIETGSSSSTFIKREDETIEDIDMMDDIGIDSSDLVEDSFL
# Sequence of Serine/threonine-protein kinase PLK3 (Homo sapiens) (Q9H4B4 whole entry, looked up, canonical isoform): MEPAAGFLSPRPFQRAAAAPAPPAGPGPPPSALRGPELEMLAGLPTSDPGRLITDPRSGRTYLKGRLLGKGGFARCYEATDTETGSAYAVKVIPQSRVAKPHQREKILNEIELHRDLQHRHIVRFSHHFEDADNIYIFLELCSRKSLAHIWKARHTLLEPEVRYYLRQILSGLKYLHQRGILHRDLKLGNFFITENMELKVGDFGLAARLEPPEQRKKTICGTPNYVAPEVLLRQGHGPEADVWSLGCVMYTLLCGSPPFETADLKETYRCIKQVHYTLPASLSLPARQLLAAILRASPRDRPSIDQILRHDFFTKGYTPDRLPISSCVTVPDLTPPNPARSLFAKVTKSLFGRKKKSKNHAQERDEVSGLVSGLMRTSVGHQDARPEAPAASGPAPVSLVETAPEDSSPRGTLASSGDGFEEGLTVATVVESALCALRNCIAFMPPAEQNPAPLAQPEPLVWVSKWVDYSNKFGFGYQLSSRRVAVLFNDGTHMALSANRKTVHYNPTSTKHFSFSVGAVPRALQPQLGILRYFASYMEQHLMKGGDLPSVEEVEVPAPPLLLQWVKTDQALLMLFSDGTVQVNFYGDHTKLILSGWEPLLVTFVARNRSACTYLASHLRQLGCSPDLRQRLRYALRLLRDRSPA
# Sequence of Serine/threonine-protein kinase 4 (Homo sapiens) (Q13043 whole entry): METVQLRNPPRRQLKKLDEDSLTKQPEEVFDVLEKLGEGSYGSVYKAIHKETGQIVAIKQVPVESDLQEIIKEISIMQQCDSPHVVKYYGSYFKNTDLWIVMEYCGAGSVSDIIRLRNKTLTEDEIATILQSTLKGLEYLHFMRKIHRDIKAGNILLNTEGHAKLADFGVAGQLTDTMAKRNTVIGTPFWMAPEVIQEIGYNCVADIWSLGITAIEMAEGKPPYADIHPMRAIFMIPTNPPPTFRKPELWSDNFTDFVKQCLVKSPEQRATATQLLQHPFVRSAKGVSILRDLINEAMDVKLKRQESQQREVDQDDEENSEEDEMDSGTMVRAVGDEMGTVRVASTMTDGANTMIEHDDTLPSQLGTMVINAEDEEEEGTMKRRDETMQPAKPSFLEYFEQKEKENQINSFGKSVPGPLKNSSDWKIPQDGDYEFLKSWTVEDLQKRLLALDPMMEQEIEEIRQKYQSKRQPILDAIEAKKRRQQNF
# Sequence of SRSF protein kinase 2 (Homo sapiens) (P78362 whole entry, looked up): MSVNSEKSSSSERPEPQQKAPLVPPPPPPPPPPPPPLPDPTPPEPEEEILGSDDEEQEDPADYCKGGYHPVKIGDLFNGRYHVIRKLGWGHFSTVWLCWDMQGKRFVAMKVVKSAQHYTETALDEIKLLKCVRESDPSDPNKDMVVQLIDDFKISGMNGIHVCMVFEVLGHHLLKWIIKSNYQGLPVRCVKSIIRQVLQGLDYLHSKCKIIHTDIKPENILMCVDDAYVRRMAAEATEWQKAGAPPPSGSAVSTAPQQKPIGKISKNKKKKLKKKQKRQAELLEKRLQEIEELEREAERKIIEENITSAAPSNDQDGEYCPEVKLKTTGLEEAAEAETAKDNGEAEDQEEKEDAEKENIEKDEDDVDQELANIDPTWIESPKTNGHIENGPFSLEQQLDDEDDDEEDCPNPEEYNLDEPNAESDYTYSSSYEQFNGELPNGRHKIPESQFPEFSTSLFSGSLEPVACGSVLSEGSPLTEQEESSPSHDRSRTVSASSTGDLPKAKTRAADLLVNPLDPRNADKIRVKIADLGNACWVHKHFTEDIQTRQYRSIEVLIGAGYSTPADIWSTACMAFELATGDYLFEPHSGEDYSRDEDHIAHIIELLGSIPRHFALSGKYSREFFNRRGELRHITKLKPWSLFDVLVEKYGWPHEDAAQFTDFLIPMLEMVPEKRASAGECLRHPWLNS
# Sequence of Cyclin-dependent kinase-like 3 (Homo sapiens) (Q8IVW4 whole entry, looked up): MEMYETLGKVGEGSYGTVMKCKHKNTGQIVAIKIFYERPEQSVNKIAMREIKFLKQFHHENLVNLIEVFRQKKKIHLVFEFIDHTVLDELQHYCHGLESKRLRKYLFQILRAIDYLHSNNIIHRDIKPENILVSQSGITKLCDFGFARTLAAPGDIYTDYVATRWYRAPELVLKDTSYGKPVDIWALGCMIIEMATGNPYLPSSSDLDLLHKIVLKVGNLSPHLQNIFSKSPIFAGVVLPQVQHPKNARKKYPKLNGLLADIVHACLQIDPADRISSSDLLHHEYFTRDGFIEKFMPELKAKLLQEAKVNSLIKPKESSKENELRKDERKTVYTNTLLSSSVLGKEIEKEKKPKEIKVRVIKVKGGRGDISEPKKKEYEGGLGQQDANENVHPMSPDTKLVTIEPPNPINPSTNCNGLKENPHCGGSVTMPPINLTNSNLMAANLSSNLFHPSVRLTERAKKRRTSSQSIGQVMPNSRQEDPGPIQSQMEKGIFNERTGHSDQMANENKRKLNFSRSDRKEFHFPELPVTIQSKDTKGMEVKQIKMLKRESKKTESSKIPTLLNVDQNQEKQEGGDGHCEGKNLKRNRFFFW
# Sequence of Casein kinase I isoform gamma-2 (Homo sapiens) (P78368 whole entry, looked up, canonical isoform): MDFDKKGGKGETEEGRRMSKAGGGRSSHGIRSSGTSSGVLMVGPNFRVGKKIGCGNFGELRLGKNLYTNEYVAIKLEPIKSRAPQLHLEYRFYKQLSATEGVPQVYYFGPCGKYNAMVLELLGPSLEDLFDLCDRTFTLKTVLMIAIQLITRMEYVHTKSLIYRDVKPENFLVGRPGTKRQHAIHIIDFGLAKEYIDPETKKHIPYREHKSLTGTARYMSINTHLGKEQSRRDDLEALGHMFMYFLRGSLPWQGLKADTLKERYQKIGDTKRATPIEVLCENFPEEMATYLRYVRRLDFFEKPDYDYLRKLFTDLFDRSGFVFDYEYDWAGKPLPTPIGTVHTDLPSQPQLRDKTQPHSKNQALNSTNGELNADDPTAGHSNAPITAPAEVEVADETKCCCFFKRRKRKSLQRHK
# Sequence of Phosphorylase b kinase gamma catalytic chain, skeletal muscle/heart isoform (Homo sapiens) (Q16816 whole entry, looked up, canonical isoform): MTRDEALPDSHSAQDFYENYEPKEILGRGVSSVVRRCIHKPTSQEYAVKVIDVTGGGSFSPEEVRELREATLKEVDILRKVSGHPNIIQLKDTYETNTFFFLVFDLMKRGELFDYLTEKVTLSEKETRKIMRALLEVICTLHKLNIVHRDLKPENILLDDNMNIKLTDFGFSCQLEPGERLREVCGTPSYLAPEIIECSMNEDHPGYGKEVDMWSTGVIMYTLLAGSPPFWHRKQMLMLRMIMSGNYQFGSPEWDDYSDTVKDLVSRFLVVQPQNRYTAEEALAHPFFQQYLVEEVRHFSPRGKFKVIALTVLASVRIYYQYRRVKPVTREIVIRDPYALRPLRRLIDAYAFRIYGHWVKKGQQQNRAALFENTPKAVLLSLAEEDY
# Sequence of NUAK family SNF1-like kinase 1 (Homo sapiens) (O60285 whole entry, canonical isoform): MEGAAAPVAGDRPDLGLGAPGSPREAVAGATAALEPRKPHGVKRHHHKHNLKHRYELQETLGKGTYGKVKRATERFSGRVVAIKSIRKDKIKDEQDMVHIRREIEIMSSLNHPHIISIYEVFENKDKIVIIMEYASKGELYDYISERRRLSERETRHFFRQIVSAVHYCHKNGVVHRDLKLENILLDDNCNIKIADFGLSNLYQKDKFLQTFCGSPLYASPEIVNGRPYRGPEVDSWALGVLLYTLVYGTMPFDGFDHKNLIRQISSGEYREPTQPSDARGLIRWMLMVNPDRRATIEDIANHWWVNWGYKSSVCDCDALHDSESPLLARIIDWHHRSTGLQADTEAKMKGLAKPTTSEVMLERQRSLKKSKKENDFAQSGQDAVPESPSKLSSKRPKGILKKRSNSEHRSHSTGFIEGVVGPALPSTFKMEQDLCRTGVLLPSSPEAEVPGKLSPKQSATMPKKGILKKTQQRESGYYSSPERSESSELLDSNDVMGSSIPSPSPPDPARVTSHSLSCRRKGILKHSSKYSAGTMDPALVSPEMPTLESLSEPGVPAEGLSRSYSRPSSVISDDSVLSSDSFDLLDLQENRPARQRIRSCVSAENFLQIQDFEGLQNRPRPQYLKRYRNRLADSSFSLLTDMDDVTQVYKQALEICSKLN
compound,measurement,setting,value
O=C1c2ccc(Nc3ccc(F)cc3F)cc2CCc2ccc(OC[C@H](O)CO)cc21 [Skepinone-L],Activity,[1],97%
same,Activity,[2],100%
same,Activity,[3],101%
same,Activity,[4],77%
same,Activity,[5],94%
same,IC50,[6],30 nM
same,Activity,[7],100%
same,Activity,[8],78%
same,Activity,[9],71%
same,Activity,[10],98%
same,Activity,[11],99%
same,Activity,[12],100%
same,Activity,[13],97%
same,IC50,[14],Not Active
same,Activity,[15],91%
same,Activity,[16],96%
same,Activity,[17],88%
same,Activity,[18],100%
same,Activity,[19],91%
same,Activity,[20],100%
same,Activity,[21],98%
same,Activity,[22],99%
same,Activity,[23],97%
same,inhibition at 10 µM,CYP2C19,42%
same,Activity,[24],97%
same,Activity,[25],100%
same,Activity,[26],93%
same,Activity,[27],113%
